Assay [1] relates to SNU16 gastric tumor model. The assay can be described thus: SNU16 xenograft in vivo efficacy. Also noted: species or system nu/nu mice. The note with it: tumor weight reduction. Here is the method: (§1) For all other tumors as listed in table 2 & 3 the experiments were carried out in an analogous way as described above.
In the next assay the test system is H716 colon tumor model. The assay can be described thus: H716 xenograft in vivo efficacy. Also noted: species or system nu/nu mice. The conditions noted are these: tumor weight reduction. Here is the method: as §1
In assay [2] the test system is HN9897 Head & Neck squamous cell carcinoma. The assay can be described thus: HN9897 patient-derived xenograft study. The assay is classed as in vivo, nu/nu mice. For orientation: In xenograft studies the graft and the host belong to different species.
For assay [3], the system named is RT112 bladder tumor model. The assay can be described thus: RT112 xenograft in vivo efficacy. Also noted: species or system nu/nu mice. The conditions noted are these: tumor weight reduction. The protocol: as §1
The next assay deals with H520 lung tumor model. The assay can be described thus: H520 xenograft in vivo efficacy. Also noted: species or system nu/nu mice. The conditions noted are these: tumor weight reduction. Here is the method:
as §1

In assay [4] the test system is MFM223 breast tumor model. The assay can be described thus: MFM223 xenograft in vivo efficacy. Also noted: species or system nu/nu mice. The conditions noted are these: tumor weight reduction. The protocol:
as §1

The test system of assay [5] is LXFL1121 lung tumor model. The assay can be described thus: LXFL1121 xenograft in vivo efficacy. Set-up: species or system nu/nu mice. The note with it: tumor weight reduction. The protocol: as §1
The next assay deals with LU1901 lung tumor model. The assay can be described thus: LU1901 xenograft in vivo efficacy. Set-up: species or system nu/nu mice. The note with it: tumor weight reduction. The protocol: as §1
For assay [6], the system named is OVXF1023 ovarian carcinoma. The assay can be described thus: OVXF1023 patient-derived xenograft study. The assay is classed as in vivo, nu/nu mice. The source says:
Female, 5-7 weeks old immunocompromised nu/nu mice (18-24 g) from Janvier (France) were used for the patient-derived OVX1023 ovarian carcinoma study.
The animals were housed in individually ventilated cages ([…] Sealsafe™-IVC-System, […], Hohenpeissenberg, Germany) and were kept under a 14L:10D artificial light cycle. The animals were monitored twice daily. Depending on group size, either type III cages or type II long cages were used. Dust-free bedding consisting of aspen wood chips with approximate dimensions of 5×5×1 mm (ABEDD®—LAB & VET Service GmbH, Vienna, Austria, Product Code: LTE E-001) were used. Additional nesting material was routinely added. […]
All experiments were approved by the local authorities, and were conducted according to all applicable international, national and local laws and guidelines. […] Animals were routinely monitored twice daily on working days and daily on weekends and public holidays. […]
Tumor size was measured twice weekly in two dimensions using a caliper, and the volume was expressed in mm^3 using the formula: V=0.5a×b^2 where a and b are the long and short diameters of the tumor, respectively. […] T-C was calculated with T as the time (in days) required for the mean tumor size of the treatment group to reach a predetermined size (e.g. 1000 mm^3), and C was the time (in days) for the mean tumor size of the control group to reach the same size. […]

In another assay the test system is HepG2 liver tumor model. The assay can be described thus: HepG2 xenograft in vivo efficacy. Also noted: species or system nu/nu mice. The note with it: tumor weight reduction. Here is the method: as §1
A further assay deals with LU299 lung tumor model. The assay can be described thus: LU299 xenograft in vivo efficacy. Also noted: species or system nu/nu mice. The conditions noted are these: tumor weight reduction. The protocol:
as §1

The test system of another assay is LXFE211 lung tumor model. The assay can be described thus: LXFE211 xenograft in vivo efficacy. Set-up: species or system nu/nu mice. The conditions noted are these: tumor weight reduction. Here is the method:
as §1

A further assay has as its system LU0697 lung tumor model. The assay can be described thus: LU0697 xenograft in vivo efficacy. The conditions noted are these: tumor weight reduction. Set-up: species or system nu/nu mice. The protocol:
as §1

The test system of assay [7] is HN366 head&neck tumor model. The assay can be described thus: HN366 xenograft in vivo efficacy. Set-up: species or system nu/nu mice. The note with it: tumor weight reduction. The protocol:
as §1

Assay [8] relates to KYSE-140 esophageal tumor model. The assay can be described thus: KYSE-140 xenograft in vivo efficacy. Also noted: species or system nu/nu mice. The conditions noted are these: KYSE-140 esophageal model; tumor weight reduction. Here is the method:
as §1

Assay [9] has as its system LXFA1584 lung tumor model. The assay can be described thus: LXFA1584 xenograft in vivo efficacy. Set-up: species or system nu/nu mice. The conditions noted are these: tumor weight reduction. The protocol: as §1

One compound from patent publication US20180333418A1, “USE OF PAN FGFR INHIBITORS AND METHOD OF IDENTIFYING PATIENTS WITH CANCER ELIGIBLE FOR TREATMENT WITH A PAN FGFR INHIBITOR” (BAYER PHARMA AKTIENGESELLSCHAFT, priority 2014, published 2018) can be followed below.

Consider `COCc1c(-c2cc3cc(C)cc(OC)c3s2)c2c(N)ncnn2c1CN1CCNC(=O)C1` [compound of formula (I)], for which the in vivo efficacy entry in assay [1] is given as “yes (All models in which the tumor weight was reduced upon treatment with compounds of formula (I) by at least 50% were considered to be efficacious in vivo.)”; with H716 colon tumor model, “yes (All models in which the tumor weight was reduced upon treatment with compounds of formula (I) by at least 50% were considered to be efficacious in vivo.)”; in [2] (HN9897 head&neck model, tumor weight reduction), “yes (All models in which the tumor weight was reduced upon treatment with compounds of formula (I) by at least 50% were considered to be efficacious in vivo.)”; in assay [3], “yes (All models in which the tumor weight was reduced upon treatment with compounds of formula (I) by at least 50% were considered to be efficacious in vivo.)”; in the assay on H520 lung tumor model, “no (All models in which the tumor weight was reduced upon treatment with compounds of formula (I) by at least 50% were considered to be efficacious in vivo.)”; in assay [4], “yes (All models in which the tumor weight was reduced upon treatment with compounds of formula (I) by at least 50% were considered to be efficacious in vivo.)”. The in vivo efficacy result in assay [5] is listed as “yes (All models in which the tumor weight was reduced upon treatment with compounds of formula (I) by at least 50% were considered to be efficacious in vivo.)”; in the assay on LU1901 lung tumor model, “no (All models in which the tumor weight was reduced upon treatment with compounds of formula (I) by at least 50% were considered to be efficacious in vivo.)”; in [6] (OVXF1023 ovarian model, tumor weight reduction) it was “yes (All models in which the tumor weight was reduced upon treatment with compounds of formula (I) by at least 50% were considered to be efficacious in vivo.)”; in the assay on HepG2 liver tumor model, “no (All models in which the tumor weight was reduced upon treatment with compounds of formula (I) by at least 50% were considered to be efficacious in vivo.)”; with LU299 lung tumor model, “yes (All models in which the tumor weight was reduced upon treatment with compounds of formula (I) by at least 50% were considered to be efficacious in vivo.)”; in the assay on LXFE211 lung tumor model, “yes (All models in which the tumor weight was reduced upon treatment with compounds of formula (I) by at least 50% were considered to be efficacious in vivo.)”. For the same compound, the in vivo efficacy result with LU0697 lung tumor model is recorded as “yes (All models in which the tumor weight was reduced upon treatment with compounds of formula (I) by at least 50% were considered to be efficacious in vivo.)”; in [7], “yes (All models in which the tumor weight was reduced upon treatment with compounds of formula (I) by at least 50% were considered to be efficacious in vivo.)”; in assay [8], “no (All models in which the tumor weight was reduced upon treatment with compounds of formula (I) by at least 50% were considered to be efficacious in vivo.)”; in assay [9] it was “no (All models in which the tumor weight was reduced upon treatment with compounds of formula (I) by at least 50% were considered to be efficacious in vivo.)”. In addition, the “T/C at day 44 post treatment start” value in assay [2] (HN9897, 50 mg/kg 2QD po, treated mean/vehicle mean tumor volume) was 0.08. For the same compound, in assay [6] (OVXF1023, 35 mg/kg 2QD 5 days on- 2 days off po, treated mean/vehicle mean tumor volume), the “T/C at day 38 post treatment start” value came to 0.2.
